Columns and labels:
[1] = Sirolimus tissue concentration in porcine coronary arteries by LC-MS; type: in vivo; settings: 50 mg/ml
Description: In accordance with a second experiment, the efficacy of a PTCA balloon coated with the 5 percent BHT solution was tested in a porcine injury model. The balloon coating formulation of sirolimus and BHT (5 percent BHT, w/w) was made according to the procedure described above. In total, three coating solutions of sirolimus and BHT (5 percent BHT, w/w) and one coating solution without BHT were prepared for the study. A standard CYPHER® Sirolimus-eluting Coronary Stent available from the Cordis Corporation was used as a control for the study. Both FIRE STAR® PTCA balloons (3.5 mm×20 mm, with total surface area of 220 mm^2) with hydrophilic treatment and the ones without a hydrophilic treatment were tested in the study. The final coating density of sirolimus and sirolimus loss during expansion were measured by HPLC. The tissue concentration in the porcine coronary arteries was measured by liquid chromatography-mass spectroscopy (LC-MS). The amount of intimal hyperplasia was determined by standard quantitative coronary angiography (QCA) at day 30.

[2] = Drug concentration in liquid formulations by liquid chromatography / HPLC; type: physicochemical
Source text: A series of liquid formulations were developed for the local or regional delivery of water insoluble compounds such as sirolimus and its analogs, including CCI-779, ABT-578 and everolimus, through weeping balloons and catheter injection needles. Sirolimus and its analogs are rapamycins. These liquid formulations increase the apparent solubility of the pharmacologically active but water insoluble compounds by two to four orders of magnitude as compared to the solubility limits of the compounds in water. These liquid formulations rely on the use of a very small amount of organic solvents such as Ethanol and a larger amount of safe amphiphilic (of or relating to a molecule having a polar, water soluble group attached to a non-polar, water insoluble […]) excipients such as polyethylene glycol (PEG 200, PEG 400) and vitamin E TPGS to enhance the solubility of the compounds. These liquid formulations of highly water insoluble compounds are stable and readily flowable at room temperature. Certain excipients, such as Vitamin E TPGS and BHT may be utilized to enhance the storage stability of sirolimus compounds through their anti-oxidation properties.
Table 7, shown below, summarizes the concentrations of the excipient, the co-solvents and the drug for four different liquid formulations. […]

[3] = Percent drug content change of coated cobalt-chromium 18 mm stent over 0 to 12 weeks (FIG. 1); type: physicochemical; settings: 0.02 weight percent BHT per total basecoat solids; 8 weeks and 12 weeks, ambient conditions (25° C.)
Source text: Referring to FIG. 1, there is illustrated in graphical format, the results of the same drug screening as described above with the solution applied to a cobalt-chromium, 18 mm stent. In this test, two sets of solution samples were utilized, one with sirolimus and polymer solution containing the antioxidant and one with sirolimus and polymer solution containing no antioxidant. The antioxidant utilized was 0.02 weight percent BHT per total basecoat solids. The test was utilized to determine the percent drug content change over a time period of 0 to 12 weeks under two conditions; namely, 40° C. with 75 percent relative humidity, and ambient conditions (25° C.).

[4] = Description: Table 9, shown below, summarizes a number of injectable liquid formulations of paclitaxel utilizing combinations of ethanol, PEG 400 and water. Specifically, the formulations set forth in Table 9 were made and analyzed for their concentrations of its various constituents. The concentrations are determined by liquid chromatography and are presented as weight by volume figures. The concentration of ethanol is preferably two or less percent so as to avoid ethanol becoming an active ingredient in the formulation.
Another aqueous liquid or injectable formulation of paclitaxel is made utilizing ethanol, PEG 400 and water, and ethanol, Vitamin E TPGS, PEG400 and water. In making the first formulation, 100 mg of paclitaxel is added to 400 μl of ethanol in a pre-weighed 20 ml scintillation vial. The mixture of paclitaxel and ethanol is vortexed and heated in a 60 degree C. bath for ten minutes. Once the drug is completely solubilized, 20 ml of PEG 400 is then added to make the final paclitaxel concentration 5 mg/ml. […] In a separate experiment, a series of 20 ml scintillation vials containing Vitamin E TPGS are heated or warmed up in a 50 degree C. water bath for ten minutes. Concurrently, distilled water is also warmed in a 50 degree C. water bath. […]

CO[C@H]1C[C@@H]2CC[C@@H](C)[C@@](O)(O2)C(=O)C(=O)N2CCCC[C@H]2C(=O)O[C@H]([C@H](C)C[C@@H]2CC[C@@H](O)[C@H](OC)C2)CC(=O)[C@H](C)/C=C(\C)[C@@H](O)[C@@H](OC)C(=O)[C@H](C)C[C@H](C)/C=C/C=C/C=C/1C [Rapamycin, rapamycin]
Sirolimus conc in artery tissue post-deploy ([1]; 20 min, hydrophilic coat No, Acetone/ethanol/water (50/40/10), BHT 5% (PKd)): 382 ± 190 ng sirolimus/mg tissue | Sirolimus conc in artery tissue post-deploy ([1]; 20 min, hydrophilic coat No, IPA/Water (3.4/1), BHT 5% (PKb)): 218 ± 96 ng sirolimus/mg tissue | Sirolimus conc in artery tissue post-deploy ([1]; 20 min, hydrophilic coat yes, IPA/Water (3.4/1), BHT 0% (PKc)): 219 ± 85 ng sirolimus/mg tissue | Sirolimus conc in artery tissue post-deploy ([1]; 20 min, hydrophilic coat yes, IPA/Water (3.4/1), BHT 5% (Pka)): 313 ± 61 ng sirolimus/mg tissue | Sirolimus conc in artery tissue post-deploy ([1]; 24 hr, hydrophilic coat No, Acetone/ethanol/water (50/40/10), BHT 5% (PKd)): 25 ± 20 ng sirolimus/mg tissue | Sirolimus conc in artery tissue post-deploy ([1]; 24 hr, hydrophilic coat No, IPA/Water (3.4/1), BHT 5% (PKb)): 39 ± 37 ng sirolimus/mg tissue | Sirolimus conc in artery tissue post-deploy ([1]; 24 hr, hydrophilic coat yes, IPA/Water (3.4/1), BHT 0% (PKc)): 16 ± 11 ng sirolimus/mg tissue | Sirolimus conc in artery tissue post-deploy ([1]; 24 hr, hydrophilic coat yes, IPA/Water (3.4/1), BHT 5% (Pka)): 40.7 ± 14.6 ng sirolimus/mg tissue | Sirolimus conc in artery tissue post-deploy ([1]; 8 day, hydrophilic coat No, Acetone/ethanol/water (50/40/10), BHT 5% (PKd)): 21 ± 36 ng sirolimus/mg tissue | Sirolimus conc in artery tissue post-deploy ([1]; 8 day, hydrophilic coat No, IPA/Water (3.4/1), BHT 5% (PKb)): 14 ± 15 ng sirolimus/mg tissue | Sirolimus conc in artery tissue post-deploy ([1]; 8 day, hydrophilic coat yes, IPA/Water (3.4/1), BHT 0% (PKc)): 16 ± 18 ng sirolimus/mg tissue | Sirolimus conc in artery tissue post-deploy ([1]; 8 day, hydrophilic coat yes, IPA/Water (3.4/1), BHT 5% (Pka)): 9.8 ± 10.4 ng sirolimus/mg tissue | Sirolimus conc in artery tissue post-deploy ([1]; 30 day, hydrophilic coat No, Acetone/ethanol/water (50/40/10), BHT 5% (PKd)): 12 ± 18 ng sirolimus/mg tissue | Sirolimus conc in artery tissue post-deploy ([1]; 30 day, hydrophilic coat No, IPA/Water (3.4/1), BHT 5% (PKb)): 5.0 ± 4.8 ng sirolimus/mg tissue | Sirolimus conc in artery tissue post-deploy ([1]; 30 day, hydrophilic coat yes, IPA/Water (3.4/1), BHT 0% (PKc)): 3.2 ± 2.8 ng sirolimus/mg tissue | Sirolimus conc in artery tissue post-deploy ([1]; 30 day, hydrophilic coat yes, IPA/Water (3.4/1), BHT 5% (Pka)): 8.4 ± 5.7 ng sirolimus/mg tissue | concentration in the 4 mg/ml PEG 200 formulation relative to the solubility in water ([2]; PEG 200 excipient, ethanol and water co-solvents): four hundred to about one thousand

Cc1cc(C(C)(C)C)c(O)c(C(C)(C)C)c1 [BHT, butylated hydroxytoluene]
percent drug content change (drug degradation) [3]: lessens drug degradation

CO[C@H]1C[C@@H]2CC[C@@H](C)[C@@](O)(O2)C(=O)C(=O)N2CCCC[C@H]2C(=O)O[C@H]([C@H](C)C[C@@H]2CC[C@@H](OC(=O)C(C)(CO)CO)[C@H](OC)C2)CC(=O)[C@H](C)/C=C(\C)[C@@H](O)[C@@H](OC)C(=O)[C@H](C)C[C@H](C)/C=C/C=C/C=C/1C [CCI-779]
concentration in the final solution (HPLC assay) ([2]; ethanol less than two percent, Vitamin E TPGS, water): 15000 µg/mL

CC(=O)O[C@H]1C(=O)[C@@]2(C)[C@H]([C@H](OC(=O)c3ccccc3)[C@]3(O)C[C@H](OC(=O)[C@H](O)[C@@H](NC(=O)c4ccccc4)c4ccccc4)C(C)=C1C3(C)C)[C@]1(OC(C)=O)CO[C@@H]1C[C@@H]2O [paclitaxel]
fold higher than the solubility in water [4]: about 1000 fold | concentration reached in true aqueous liquid formulations ([4]; PEG 400 / Vitamin E TPGS / ethanol / water): up to 2.5 mg/ml

— patent US20120302954A1, “EXPANDABLE DEVICES COATED WITH A PACLITAXEL COMPOSITION” (priority 2011, published 2012)
